# Measurements: patent publication US9648876B2, “Method of inhibiting biofilm formation” (Research Foundation of the City University of New York, priority 2015, dated 2017)
# Like-named read-outs stand apart in the source and are kept apart here.
# Assays:
# [1] = system: C. albicans mature biofilms; test: Established (mature, 24-h) biofilm susceptibility (XTT reduction, LIVE/DEAD confocal microscopy)
# Description: LIVE/DEAD staining of the biofilm was performed and dead cells were quantified in confocal micrographs.
# (§1) Candida albicans was subcultured onto Sabouraud dextrose agar (per liter: peptone 10 g, dextrose 40 g, agar 15 g; pH of 5.6) and incubated at 30° C. for 24 h. One colony was then added to yeast extract-peptone-dextrose (YPD; 1% yeast extract, 2% peptone, 2% dextrose) and incubated with shaking at 30° C. and 170 rpm for 16 h, after which cells were harvested, washed in phosphate-buffered saline (PBS), and diluted to a standard inoculum of 1.0×10^6 cells per ml.
# For biofilm assays in microtiter plates, 100 μl of a standard inoculum of C. albicans cells (1.0×10^6 cells per ml) was added to the wells of a 96-well plate in triplicate, and the cells were allowed to adhere for 90 min at 37° C. After incubation, the plates were washed twice with PBS to remove nonattached cells. Then 100 μl of RPMI 1640 with L-glutamine, without sodium bicarbonate (GIBCO®), buffered to pH 7.0 with 165 mM morpholinepropanesulfonic acid (MOPS) was added to each well, and the plates were incubated at 37° C. for 24 h. Early-stage biofilms were prepared essentially as above, with the exception that the cells were induced to form biofilms for either 3 or 6 h prior to treatment.
# Fluconazole was obtained from Sigma. All drugs were dissolved in dimethyl sulfoxide (DMSO).
# Menadione and XTT [2,3-bis-(2-methoxy-4-nitro-5-sulfophenyl)-2H-tetrazolium-5-carboxyanilide] were obtained from Sigma-Aldrich. After a drug challenge, the wells were washed twice with PBS, and then 100 μl of XTT-menadione solution was added to the wells, and plates incubated in the dark for 1 h at 37° C. The absorbance of wells at 490 nm was read using a microplate reader (Biotec/Synergy software).
# Candida albicans biofilms were treated with or without test compounds for various times, depending on the experimental design, after which the cells were prepared for microscopy by staining with the BacLight yeast viability kit, the contents of which include Syto-9 and propidium iodide (Molecular Probes, Eugene, Oreg.) according to the manufacturer's instructions. Confocal images were obtained using an Olympus FluoView10i microscope and a filter set for Syto-9 and propidium iodide. Overlays included phase contrast images. All confocal images were processed using ImageJ.
# Biofilm viability was assayed by XTT reduction and calculated as follows:
# [formula] where background wells contained XTT solution only; untreated wells received cells only, with no added drug.
# [2] = system: C. albicans DAY185 planktonic cells; test: Planktonic cell growth and viability; assay type: cell-based, Candida albicans; settings: 0.06 μg per ml
# Description: Small arrows (FIG. 1B and FIG. 1C) denote chains of yeast cells. Note the microcolonies apparent in the control culture at 3 hours (FIG. 2B) and 9 hours (FIG. 2C) denoted by the large arrows. […] Under these conditions, some yeast cells formed short linear chains, but there were few germ tubes, and the culture never developed true hyphae. […] When germ tubes were allowed to emerge before treatment with xanthochymol, the germ tubes elongated and branched for several hours. In contrast, when C. albicans DAY185 planktonic cells were grown in YPD in the presence or absence of either Garcinia benzophenone (70 μg per ml), there was no significant effect on the growth or viability.
# [3] = target: pCAF (Homo sapiens, UniProt Q92831); settings: cited from earlier work
# [4] = target: histone acetyltransferase (HAT) p300 (Homo sapiens, UniProt Q09472); settings: cited from earlier work
# [5] = system: C. albicans early biofilms; assay type: cell-based, Candida albicans; settings: fluconazole at 32 μg per ml, FIG. 3
# Description: as §1
# For biofilm assays in microtiter plates, 100 μl of a standard inoculum of C. albicans cells (1.0×10^6 cells per ml) was added to the wells of a 96-well plate in triplicate, and the cells were allowed to adhere for 90 min at 37° C. After incubation, the plates were washed twice with PBS to remove nonattached cells. Then 100 μl of RPMI 1640 with L-glutamine, without sodium bicarbonate (GIBCO®), buffered to pH 7.0 with 165 mM morpholinepropanesulfonic acid (MOPS) was added to each well, and the plates were incubated at 37° C. for 24 h. […]
# Menadione and XTT [2,3-bis-(2-methoxy-4-nitro-5-sulfophenyl)-2H-tetrazolium-5-carboxyanilide] were obtained from Sigma-Aldrich. […] The absorbance of wells at 490 nm was read using a microplate reader (Biotec/Synergy software). […]
# Biofilm viability was assayed by XTT reduction and calculated as follows: […]
# Sequence of histone acetyltransferase (HAT) p300 (Q09472 whole entry): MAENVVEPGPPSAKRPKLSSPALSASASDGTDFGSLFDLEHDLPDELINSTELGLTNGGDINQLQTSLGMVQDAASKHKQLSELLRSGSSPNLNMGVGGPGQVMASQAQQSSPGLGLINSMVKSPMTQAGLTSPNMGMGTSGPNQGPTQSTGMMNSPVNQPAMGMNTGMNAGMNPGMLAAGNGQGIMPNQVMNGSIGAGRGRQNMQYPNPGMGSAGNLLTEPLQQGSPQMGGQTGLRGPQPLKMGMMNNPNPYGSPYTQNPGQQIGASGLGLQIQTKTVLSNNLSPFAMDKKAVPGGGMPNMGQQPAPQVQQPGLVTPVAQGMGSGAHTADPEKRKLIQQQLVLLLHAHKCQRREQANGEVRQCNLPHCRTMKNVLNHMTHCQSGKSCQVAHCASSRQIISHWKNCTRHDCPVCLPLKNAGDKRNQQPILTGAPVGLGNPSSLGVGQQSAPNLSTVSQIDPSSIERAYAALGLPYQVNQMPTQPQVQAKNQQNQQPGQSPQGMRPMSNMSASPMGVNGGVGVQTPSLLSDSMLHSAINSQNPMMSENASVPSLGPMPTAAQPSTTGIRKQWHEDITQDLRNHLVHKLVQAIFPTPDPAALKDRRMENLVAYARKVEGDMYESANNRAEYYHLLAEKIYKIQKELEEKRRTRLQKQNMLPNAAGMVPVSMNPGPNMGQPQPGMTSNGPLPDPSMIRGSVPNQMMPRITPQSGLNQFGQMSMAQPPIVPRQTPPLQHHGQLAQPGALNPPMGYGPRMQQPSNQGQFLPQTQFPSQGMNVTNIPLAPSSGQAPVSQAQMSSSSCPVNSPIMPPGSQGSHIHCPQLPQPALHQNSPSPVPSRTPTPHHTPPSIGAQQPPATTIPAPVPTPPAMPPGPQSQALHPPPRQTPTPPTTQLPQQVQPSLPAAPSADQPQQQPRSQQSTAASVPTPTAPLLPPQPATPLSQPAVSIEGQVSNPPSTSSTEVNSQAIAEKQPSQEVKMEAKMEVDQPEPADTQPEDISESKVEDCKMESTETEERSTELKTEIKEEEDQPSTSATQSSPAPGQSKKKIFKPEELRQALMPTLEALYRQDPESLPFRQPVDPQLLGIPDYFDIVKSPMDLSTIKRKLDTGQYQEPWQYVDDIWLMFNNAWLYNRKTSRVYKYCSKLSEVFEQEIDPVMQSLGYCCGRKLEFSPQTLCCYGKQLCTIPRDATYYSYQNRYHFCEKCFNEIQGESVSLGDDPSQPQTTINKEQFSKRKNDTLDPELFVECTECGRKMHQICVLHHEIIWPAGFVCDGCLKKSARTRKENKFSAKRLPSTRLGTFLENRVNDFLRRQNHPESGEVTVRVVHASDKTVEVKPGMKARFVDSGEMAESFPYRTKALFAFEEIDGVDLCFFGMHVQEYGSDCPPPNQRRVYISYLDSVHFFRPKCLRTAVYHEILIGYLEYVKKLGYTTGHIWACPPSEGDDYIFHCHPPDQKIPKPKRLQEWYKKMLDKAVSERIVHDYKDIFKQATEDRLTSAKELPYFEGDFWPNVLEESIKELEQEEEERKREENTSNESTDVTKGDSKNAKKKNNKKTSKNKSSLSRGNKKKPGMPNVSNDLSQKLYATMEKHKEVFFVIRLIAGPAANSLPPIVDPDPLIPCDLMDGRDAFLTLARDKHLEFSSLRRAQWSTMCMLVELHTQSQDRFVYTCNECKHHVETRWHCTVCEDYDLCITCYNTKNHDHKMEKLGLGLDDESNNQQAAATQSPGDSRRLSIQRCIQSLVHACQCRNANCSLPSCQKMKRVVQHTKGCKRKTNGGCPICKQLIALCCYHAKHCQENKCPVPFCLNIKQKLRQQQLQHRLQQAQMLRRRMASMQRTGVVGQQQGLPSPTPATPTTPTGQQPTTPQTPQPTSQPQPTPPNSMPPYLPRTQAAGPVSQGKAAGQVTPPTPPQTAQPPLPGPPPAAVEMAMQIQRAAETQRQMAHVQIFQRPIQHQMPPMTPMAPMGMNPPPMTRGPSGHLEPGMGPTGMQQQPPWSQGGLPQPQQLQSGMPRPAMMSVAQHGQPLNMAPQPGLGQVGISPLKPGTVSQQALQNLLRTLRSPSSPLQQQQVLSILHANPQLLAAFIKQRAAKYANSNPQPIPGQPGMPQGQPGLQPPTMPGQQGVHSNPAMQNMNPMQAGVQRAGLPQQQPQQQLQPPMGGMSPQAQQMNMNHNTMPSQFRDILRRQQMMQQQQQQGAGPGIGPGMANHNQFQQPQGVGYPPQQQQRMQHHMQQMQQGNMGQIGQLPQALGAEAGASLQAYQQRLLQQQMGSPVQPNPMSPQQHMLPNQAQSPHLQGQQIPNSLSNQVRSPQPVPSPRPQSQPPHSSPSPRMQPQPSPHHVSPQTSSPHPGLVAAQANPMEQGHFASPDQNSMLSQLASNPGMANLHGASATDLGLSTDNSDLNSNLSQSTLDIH
# Sequence of pCAF (Q92831 whole entry, species assumed): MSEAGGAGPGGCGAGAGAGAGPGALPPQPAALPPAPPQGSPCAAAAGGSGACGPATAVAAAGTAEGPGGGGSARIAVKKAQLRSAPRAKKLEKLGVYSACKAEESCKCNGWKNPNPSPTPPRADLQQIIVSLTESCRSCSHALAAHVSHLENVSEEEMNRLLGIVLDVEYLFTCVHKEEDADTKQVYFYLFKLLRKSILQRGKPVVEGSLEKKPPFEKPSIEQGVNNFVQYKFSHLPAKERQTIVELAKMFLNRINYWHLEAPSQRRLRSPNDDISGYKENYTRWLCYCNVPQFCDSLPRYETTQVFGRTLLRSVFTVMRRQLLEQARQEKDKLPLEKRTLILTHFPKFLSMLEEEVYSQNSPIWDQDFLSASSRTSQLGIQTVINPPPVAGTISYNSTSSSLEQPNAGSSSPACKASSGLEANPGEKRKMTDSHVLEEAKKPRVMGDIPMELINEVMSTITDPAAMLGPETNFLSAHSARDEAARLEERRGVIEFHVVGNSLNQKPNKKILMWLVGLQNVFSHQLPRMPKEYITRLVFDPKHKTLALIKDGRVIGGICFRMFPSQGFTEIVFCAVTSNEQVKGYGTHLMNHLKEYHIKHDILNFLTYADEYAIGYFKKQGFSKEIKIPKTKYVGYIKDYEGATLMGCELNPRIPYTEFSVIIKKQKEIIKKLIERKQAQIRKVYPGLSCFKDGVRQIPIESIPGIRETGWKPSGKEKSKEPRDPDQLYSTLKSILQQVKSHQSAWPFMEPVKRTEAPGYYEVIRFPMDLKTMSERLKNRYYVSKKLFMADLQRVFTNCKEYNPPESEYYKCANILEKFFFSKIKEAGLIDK
structure (smiles),measurement,setting,value
CC[C@H](C)C[C@H](C)CCCCCCCCC(=O)N[C@H]1C[C@@H](O)[C@@H](NCCN)NC(=O)[C@@H]2[C@@H](O)CCN2C(=O)[C@H]([C@H](O)CCN)NC(=O)[C@H]([C@H](O)[C@@H](O)c2ccc(O)cc2)NC(=O)[C@@H]2C[C@@H](O)CN2C(=O)[C@H]([C@@H](C)O)NC1=O [caspofungin],killing of biofilm (positive control),[1]; 0.06 μg per ml,less effective against a biofilm
same,killing of planktonic yeast phase cells,[2],showed killing
C=C(C)CC[C@@H](C[C@@]12C[C@@H](CC=C(C)C)C(C)(C)[C@@](CC=C(C)C)(C(=O)C(C(=O)c3ccc(O)c(O)c3)=C1O)C2=O)C(=C)C [garcinol],inhibition of pCAF,[3],micromolar concentrations
same,inhibition of HAT p300,[4],micromolar concentrations
OC(Cn1cncn1)(Cn1cncn1)c1ccc(F)cc1F [fluconazole],killing of biofilm cells by microscopy,"[1]; 24-h biofilms, 24 h of exposure, confocal LIVE/DEAD",minimal effect
same,reduction in viability,"[1]; 24-h biofilms, fluconazole as high as 1,024 μg per ml, XTT assay",15%
same,IC50,"[1]; Candida albicans, 24 h, read-out: fluconazole IC50",13 µg/mL
same,EC50,"[1]; Candida albicans, read-out: fluconazole EC50, mature biofilms, fluconazole alone",> 1020 µg/mL
same,EC50,"[1]; Candida albicans, read-out: fluconazole EC50, mature biofilms, with xanthochymol",13 µg/mL
same,reduction of biofilm activity,[5],20%
